The values below come from patent US20250255866A1, “USES OF FATTY ACID AMIDE HYDROLASE INHIBITORS IN TREATMENT OF TRAUMA RELATED PSYCHIATRIC DISORDERS” (Neuritek Therapeutics Ltd., priority 2020, published 2025).

The test system of one assay is FAAH. Nature of the assay: Changes in plasma fatty acid amide (FAA) levels in response to the FAAH inhibitor. In kind it is in vivo, human. The note with it: 450 mg/day, plasma drug level 200 nm/ml to about 600 ng/ml, predicted maximal change. The protocol:
In other embodiments, upon achieving trough steady state plasma, plasma FAA levels will be minimal. Conversely, at the 450 mg/day dose, changes in plasma FAA levels in response to 3-{[5-(2-Fluorophenyl)pyridin-2-yl]oxy}-N-(pyridazin-3-yl)azetidine-1-carboxamide ranging from 200 nm/ml to about 600 ng/ml are predicted to be maximal; in the order of 3, 4, 8 and 5 ng/mL for AEA, LEA, OEA and PEA, respectively.

For a further assay, the system named is adults with PTSD. As to the kind of experiment: Exploratory behavioral analyses 1: effect relative to placebo on PTSD symptoms. In kind it is in vivo, human. The protocol:
(a). To evaluate the effect of daily 450 mg of 3-{[5-(2-Fluorophenyl)pyridin-2-yl]oxy}-N-(pyridazin-3-yl)azetidine-1-carboxamide relative to placebo in mitigating PTSD symptoms in adults with PTSD. Patient will be receiving a 450 mg dose of the study agent.
(b). To evaluate the effect of 450 mg of the study drug relative to placebo in mitigating PTSD symptoms that comprise a contemporary, five-factor phenotypic model of this disorder, as well as secondary “intermediate phenotype” measures of anxiety sensitivity and somatic anxiety.

Take `O=C(Nc1cccnn1)N1CC(Oc2ccc(-c3ccccc3F)cn2)C1` [3-{[5-(2-Fluorophenyl)pyridin-2-yl]oxy}-N-(pyridazin-3-yl)azetidine-1-carboxamide]: in the assay with FAAH, the “change in plasma FAA level: AEA” value was about 3 ng/mL, the “change in plasma FAA level: LEA” value is reported as about 4 ng/mL, the “change in plasma FAA level: OEA” value is about 8 ng/mL and the “change in plasma FAA level: PEA” value is given as about 5 ng/mL. Moreover, the “PTSD symptoms of the five-factor phenotypic model, anxiety sensitivity and somatic anxiety, relative to placebo” value in the assay with adults with PTSD (450 mg daily dose) is on record as “most pronounced effect on reducing anxious arousal”. For the same compound, the “overall severity of PTSD symptoms relative to placebo” value with adults with PTSD (daily 450 mg) is reported as “reduction in overall severity of PTSD symptoms”.
